The results in this text go back to the NIST ThermoML archive (doi:10.1016/j.jct.2012.11.016).

Data set [1] is described as follows: refractive index (Na D-line) (dimensionless). To be noted: 101.33 kPa, Liquid, Standard Abbe refractometry.
The conditions of data set [2]: 101.33 kPa, Liquid; for viscosity: Capillary tube (Ostwald / Ubbelohde) method; for mass density: Vibrating tube method.

± gives the expanded uncertainty stated by the source.

By refractive index is commonly meant the speed of light in vacuum divided by its phase velocity in the sample. In general, viscosity refers to the resistance of a fluid to flow. The term mass density denotes mass per unit of volume. On to `O` [water], for which the refractive index in data set [1] (298.15 K) came to 1.3326 ± 0.0005; in data set [1] (303.15 K), 1.3321 ± 0.0005; in data set [1] (308.15 K), 1.3315 ± 0.0005. The viscosity in data set [2] (298.15 K) is 0.806 ± 0.081 mPa·s; in data set [2] (303.15 K) it was 0.728 ± 0.073 mPa·s; in data set [2] (308.15 K), 0.661 ± 0.066 mPa·s. In addition, the results for the mass density in data set [2] (303.15 K) and in data set [2] (308.15 K) were 995.4 ± 0.3 kg/m3 and 993.7 ± 0.3 kg/m3, respectively.
Take `OCCCO` [propan-1,3-diol]: the results for the viscosity in data set [2] (298.15 K), in data set [2] (303.15 K) and in data set [2] (308.15 K) were 41.36 ± 4.2 mPa·s, 32.78 ± 3.3 mPa·s and 27 ± 2.7 mPa·s, respectively. For the same compound, the mass density in data set [2] (298.15 K) came to 1049.6 ± 0.9 kg/m3; in data set [2] (303.15 K), 1046.2 ± 0.9 kg/m3; in data set [2] (308.15 K), 1043.1 ± 0.9 kg/m3.
On to `OCCO` [1,2-ethanediol], for which the figures for the viscosity in data set [2] (298.15 K), in data set [2] (303.15 K) and in data set [2] (308.15 K) were 16.87 ± 1.7 mPa·s, 13.59 ± 1.4 mPa·s and 11.34 ± 1.1 mPa·s, respectively. Also, in data set [2] (303.15 K), the mass density is recorded as 1106 ± 1.1 kg/m3.
Take `OCCCCO` [1,4-butanediol]: the viscosity is reported as 72.33 ± 7.3 mPa·s in data set [2] (298.15 K), 56.43 ± 5.7 mPa·s in data set [2] (303.15 K) and 44.11 ± 4.5 mPa·s in data set [2] (308.15 K). Moreover, the mass density in data set [2] (298.15 K) was found to be 1013.9 ± 0.9 kg/m3; in data set [2] (303.15 K) it was 1010.6 ± 0.9 kg/m3; in data set [2] (308.15 K), 1007.5 ± 0.9 kg/m3.
